Results: PubChem BioAssay AID328 (DTP/NCI, 2004)
Toxic doses and inconclusive results are not listed.

System: BDF1 mice, P388 leukemia ip, median survival T/C
Assay: NCI In Vivo Anticancer Drug Screen. Data for tumor model P388 Leukemia (intraperitoneal) in B6D2F1 (BDF1) mice
Conditions: endpoint: median survival time, higher = longer survival
In short: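 Mice carrying the transplantable tumour receive compound or vehicle. Survival is followed in each arm, and the treated measure is divided by the vehicle measure.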

[1] = dose: 12.5 mg/kg/injection, schedule: Q01DX009 (ip), vehicle: Klucel (hydroxypropylcellulose) (HPC)
[2] = dose: 100.0 mg/kg/injection, schedule: Q04DX003 (ip), vehicle: saline
[3] = dose: 200.0 mg/kg/injection, schedule: Q04DX003 (ip), vehicle: saline

In the case of `C[n+]1ccc(Nc2ccc(NC(=O)c3ccc(C(=O)Nc4ccc(Nc5cc[n+](C)c(N)n5)cc4)cc3)cc2)nc1N`, the T/C (dose: 6.3 mg/kg/injection, schedule: Q01DX007 (ip), vehicle: Klucel (hydroxypropylcellulose) (HPC)) is reported as 180 % of control, the T/C (dose: 6.3 mg/kg/injection, schedule: Q01DX009 (ip), vehicle: saline) is reported as 155 % of control and the T/C (dose: 9.6 mg/kg/injection, schedule: Q01DX007 (ip), vehicle: Klucel (hydroxypropylcellulose) (HPC)) is reported as 180 % of control. For the same compound, the T/C (dose: 9.6 mg/kg/injection, schedule: Q01DX009 (ip), vehicle: saline) was 161 % of control, the T/C [1] was 190 % of control and the T/C (dose: 14.0 mg/kg/injection, schedule: Q01DX007 (ip), vehicle: Klucel (hydroxypropylcellulose) (HPC)) was 175 % of control. The T/C (dose: 14.0 mg/kg/injection, schedule: Q01DX009 (ip), vehicle: saline) was 150 % of control, the T/C (dose: 25.0 mg/kg/injection, schedule: Q01DX009 (ip), vehicle: Klucel (hydroxypropylcellulose) (HPC)) was 172 % of control and the T/C (dose: 50.0 mg/kg/injection, schedule: Q01DX009 (ip), vehicle: Klucel (hydroxypropylcellulose) (HPC)) was 204 % of control. The T/C (dose: 100.0 mg/kg/injection, schedule: Q01DX009 (ip), vehicle: Klucel (hydroxypropylcellulose) (HPC)) was 259 % of control, the T/C [2] was 172 % of control and the T/C [3] was 163 % of control.
In the case of `Cc1cc(Sc2ccc(Cl)cc2)nc(Sc2ccc(Cl)cc2)c1C#N`, the T/C (dose: 50.0 mg/kg/injection, schedule: Q01DX005 (ip), vehicle: saline with Tween-80) is reported as 94 % of control, the T/C (dose: 100.0 mg/kg/injection, schedule: Q01DX005 (ip), vehicle: saline with Tween-80) is reported as 88 % of control and the T/C (dose: 200.0 mg/kg/injection, schedule: Q01DX005 (ip), vehicle: saline with Tween-80) is reported as 91 % of control.
`Cc1nc2ccccc2nc1CBr` was tested, and the T/C (dose: 2.66 mg/kg/injection, schedule: Q01DX009 (ip), vehicle: saline with Tween-80) was 109 % of control, the T/C (dose: 3.12 mg/kg/injection, schedule: Q01DX009 (ip), vehicle: Klucel (hydroxypropylcellulose) (HPC)) was 111 % of control and the T/C (dose: 6.0 mg/kg/injection, schedule: Q01DX009 (ip), vehicle: saline with Tween-80) was 122 % of control. For the same compound, the T/C (dose: 6.25 mg/kg/injection, schedule: Q01DX009 (ip), vehicle: Klucel (hydroxypropylcellulose) (HPC)) was 122 % of control, the T/C (dose: 6.25 mg/kg/injection, schedule: Q04DX003 (ip), vehicle: saline with Tween-80) was 109 % of control and the T/C (dose: 6.3 mg/kg/injection, schedule: Q01DX009 (ip), vehicle: Klucel (hydroxypropylcellulose) (HPC)) was 105 % of control. For the same compound, the T/C [1] was 105 % of control, the T/C (dose: 12.5 mg/kg/injection, schedule: Q04DX003 (ip), vehicle: saline with Tween-80) was 109 % of control and the T/C (dose: 25.0 mg/kg/injection, schedule: Q01DX009 (ip), vehicle: saline with Tween-80) was 122 % of control. For the same compound, the T/C (dose: 25.0 mg/kg/injection, schedule: Q04DX003 (ip), vehicle: saline with Tween-80) was 113 % of control.
With `C[S+](C)Cc1ccc(C(=O)Oc2ccc([N+](=O)[O-])cc2)cc1` the T/C (dose: 50.0 mg/kg/injection, schedule: Q01DX009 (ip), vehicle: saline) was 100 % of control, the T/C (dose: 50.0 mg/kg/injection, schedule: Q04DX003 (ip), vehicle: saline) was 100 % of control and the T/C (dose: 100.0 mg/kg/injection, schedule: Q01DX009 (ip), vehicle: saline) was 105 % of control. The T/C [2] was 109 % of control and the T/C [3] was 100 % of control.
In the case of `CCC1(O)CC2CN(CCc3c([nH]c4ccccc34)C(C(=O)OC)(c3cc4c(cc3OC)N(C)C3C(O)(C(N)=O)C(O)C5(CC)C=CCN6CCC43C65)C2)C1` (centres undefined) (tested in a mixture with another compound), the T/C (dose: 0.65 mg/kg/injection, schedule: Q04DX003 (ip), vehicle: saline) is reported as 188 % of control, the T/C (dose: 0.87 mg/kg/injection, schedule: Q04DX003 (ip), vehicle: saline) is reported as 154 % of control and the T/C (dose: 1.08 mg/kg/injection, schedule: Q04DX003 (ip), vehicle: saline) is reported as 223 % of control. For the same compound, the T/C (dose: 1.3 mg/kg/injection, schedule: Q04DX003 (ip), vehicle: saline) was 187 % of control, the T/C (dose: 1.8 mg/kg/injection, schedule: Q04DX003 (ip), vehicle: saline) was 238 % of control and the T/C (dose: 2.0 mg/kg/injection, schedule: Q04DX003 (ip), vehicle: saline) was 163 % of control. The T/C (dose: 3.0 mg/kg/injection, schedule: Q04DX003 (ip), vehicle: saline) was 101 % of control, the T/C (dose: 500.0 micrograms/kg/injection, schedule: Q04DX003 (ip), vehicle: saline) was 175 % of control and the T/C (dose: 648.0 micrograms/kg/injection, schedule: Q04DX003 (ip), vehicle: saline) was 203 % of control. For the same compound, the T/C (dose: 1000.0 micrograms/kg/injection, schedule: Q04DX003 (ip), vehicle: saline) was 250 % of control, the T/C (dose: 1080.0 micrograms/kg/injection, schedule: Q04DX003 (ip), vehicle: saline) was 237 % of control and the T/C (dose: 1800.0 micrograms/kg/injection, schedule: Q04DX003 (ip), vehicle: saline) was 237 % of control. The T/C (dose: 2000.0 micrograms/kg/injection, schedule: Q04DX003 (ip), vehicle: saline) was 211 % of control and the T/C (dose: 4000.0 micrograms/kg/injection, schedule: Q04DX003 (ip), vehicle: saline) was 96 % of control.
